One assay relates to antibodies to CII. Put plainly: Serum antibodies to CII by ELISA in neonatally treated mice. It is filed as in vivo. The note with it: 100 μg antigen in IFA intraperitoneally within 24 hours of birth; serum four weeks after immunization; mean titer. The procedure: (§1) Mice were bled at four weeks after immunization and the serum was tested for antibodies reactive with type II collagen by enzyme-linked immunoassay (ELISA) described in Stuart, J. M., A. S. Townes, and A. H. Kang. 1982. Nature and Specificity of the Immune Response to Collagen in Type II Collagen-Induced Arthritis in Mice, J. Clin. Invest. 69:673. The disclosure of this article is incorporated by reference An anti-CII serum standard was used in each assay. A standard curve was derived by computer analysis using a 4 parameter logistic curve. Results are reported as units of activity, derived by comparison of test sera with the curve derived from the anti-CII standard which was arbitrarily defined as having 50 units of activity. Sera from mice were tested individually, and means were calculated for each experimental group.
The foregoing data support the hypothesis that analog peptide CII 245-270[s260, 261, 263] competes for binding to I-A^q. […] Synthetic peptides were solubilized directly in phosphate buffered saline (PBS) at a concentration of 1 mg/ml. Neonatal mice were tolerized using a protocol described by Gammon et al.^21 in which antigen emulsified with incomplete Freund's adjuvant was injected intraperitoneally. Gammon, Dunn, Shastri, Oki, Wilbur, Sercarz, 1986, Neonatal T Cell Tolerance to Minimal Immunogenic Peptides is Caused by Clonal Inactivation, Nature (Lond) 319:413. […]
A general note: ELISA stands for enzyme-linked immunosorbent assay.

Assay [1] concerns antibodies reactive with type II collagen. Briefly: Serum antibodies to CII by ELISA in co-immunized mice. It is filed as in vivo, DBA/1 mice. Particulars: for Antibodies to CII: serum four weeks after immunization, mean. How it is done:
as §1
In order to assess the effects of co-immunizing mice with both CII 245-270[s260, 261, 263] and CII, the mean antibody titers to native CII were measured for each immunization group in Table III, four weeks after immunization (Table IV).

For assay [2], the system named is collagen induced arthritis in neonatally tolerized mice. Briefly: Neonatal tolerance: peptide given at birth, CII challenge at eight weeks, arthritis observed. Particulars: administered to neonatal mice prior to immunization with CII; 261, 263]. It is filed as in vivo. From the text:
To measure the incidence of arthritis in immunized mice, individuals examined and scored each of the forepaws and hind paws on a scale of 0-4 as described in Wooley, P. H., H. W. Luthra, J. M. Stuart and C. S. David. 1981. “Type 11 Collagen-induced Arthritis in Mice”. I. Major Histocompatibility Complex (I region) Linkage and Antibody Correlates. J. Exp. Med. 154:688. This article is incorporated herein by reference. There were two separate examiners, one of whom was unaware of the identity of the treatment groups. Each mouse was scored three times a week beginning three weeks post immunization and continuing through 8 weeks post immunization. The incidence of arthritis (number of animals with one or more arthritic limbs) was reported at 6 weeks post immunization, the time point at which the control group reached its peak of disease. The incidence of arthritis in various groups of mice was compared using Fisher's Exact Test. Student's T test was used to compare means of antibody responses to CII.
The foregoing data support the hypothesis that analog peptide CII 245-270[s260, 261, 263] competes for binding to I-A^q. […] Synthetic peptides were solubilized directly in phosphate buffered saline (PBS) at a concentration of 1 mg/ml. […]

For a further assay, the system named is CII-primed T cells. Put plainly: T cell stimulation assay, γ-IFN production by CII-primed spleen and lymph node cells. Format: cell-based, mice. The note with it: CII-primed T cells cultured with 100 μm of antigen; FIG. 1. How it is done: Nowarck H., E. Hahn, R. Timple, 1976, “Requirements for T Cells in the Antibody Response of Mice to Calf Skin Collagen,” J. Immunol. 30:29. Each peptide was cultured with pooled spleen and lymph node cells from CII-immunized mice, and culture supernatant fluids were tested for the presence of γ-interferon as an indicator of T cell stimulation. T cell hybridomas were established by polyethylene glycol-induced fusion of lymph node cells with the T cell receptor α^−/β^−thymoma line, BW5147. White, M., M. Blackman, J. Bill, J. Kappler, P. Marrack, D. P. Gold, and W. Born, 1989, Two Better Cell Lines for Making Hybridomas Expressing Specific T Cell Receptors. J. Immunol. 143:1822. […]
T cell stimulation assays were performed in 96 well plates and the degree of stimulation was quantitated by measurements of γ-IFN production. […] Supernatants were collected from 72 to 120 hours later and either […] analyzed for γ-IFN production immediately or stored at −70° C. prior to analysis. Quantitative measurement of murine gamma interferon was done using a solid-phase enzyme-linked immunosorbent assay (Amgen Biologicals, Thousand Oaks, Calif.). […] The absorbance was measured at 405 nm with a spectrophotometer, and a standard curve was obtained by plotting the absorbance versus the corresponding concentration of the standards. Units of γ-interferon were calculated based on NIH standard number Gg02-901-533. […]

The test system of assay [3] is collagen induced arthritis (CIA) in DBA/1 mice. Put plainly: Collagen induced arthritis, simultaneous immunization with CII and peptide. It is filed as in vivo.

“Also recorded” adds a separate entry of the source.

In the case of “Pro - Thr - Gly - Pro - Leu - Gly - Pro - Lys - Gly - Gln - Thr - Gly - Glx - Leu - Gly - Ala - 4Hyp - Gly - Asn - Lys - Gly - Glx - Gln - Gly - Pro - Lys [CII 245-270 [s260, 261, 263], analog of CII 245-270 with alanine at 260, hydroxyproline at 261, asparagine at 263]”, the “Antibodies to CII” value in the assay with antibodies to CII is 55.6 ± 19; in assay [1] (molar ratio CII:peptide 1:160), 53 ± 25 units of activity; in assay [1] (molar ratio CII:peptide 1:320) it was 34 ± 22 units of activity; in assay [1] (molar ratio CII:peptide 1:480), 17 ± 3 units of activity. The “Immune responses to CII in vivo as well as in vitro, in words” value in assay [1] (co-immunization with CII) is “significantly down regulated”. Also, the “Effectiveness as neonatal tolerogen, in words” value in assay [2] is “ineffective as a CII tolergen; also recorded: very poor tolerogen”. In the assay with CII-primed T cells, the “T cell stimulation (γ-interferon) compared to the wild type peptide CII 245-270” value is recorded as “did not respond”. Also, the “Incidence of arthritis and number of arthritic limbs, in words” value in assay [3] (co-immunized with CII at various molar ratios) was “dose-dependent decrease”. The “Development / incidence of arthritis, in words” value in assay [3] (co-injected with native CII, molar ratio CII:peptide 1:480) is “arthritis did not develop”.

(Values after patent publication US20020037844A1, “SYNTHETIC PEPTIDE FOR TREATMENT OF AUTOIMMUNE ARTHRITIS” (priority 1993, published 2002).)
